Structures are written as SMILES.

The source of these data is patent publication US20260216215A1, “COMPOSITIONS AND METHODS FOR TREATING OR PREVENTING PAIN OR OTHER DISORDERS” (priority 2022, published 2026).

Data set [1] deals with chemical nociception. The following applies: not blocked by naloxone; cited from earlier work.
The conditions of data set [2]: cited from earlier work.
The subject of data set [3] is inflammation in experimental rat model. The following applies: versus Diclofenac (100 mg/kg), p<0.05; cited from earlier work.
Data set [4] concerns menstrual pain. As to the kind of experiment: Comparison of VAS scores for CBD only, CBG only, PEA only and combination vaginal suppositories (Example 2). The format is in vivo, human. To be noted: vaginal suppository; for Magnitude of pain reduction from baseline: VAS points. The text has this:
Specifically, the formulations were individually/separately administered, with each single formulation being administered on a separate day of the patient's menstrual period.
Comparison of visual analogue pain scores (VAS scores) for CBD only, CBG only, PEA only and CBD+CBG+PEA combinations delivered using vaginal suppositories.

For data set [5], the system named is neuropathic pain. To be noted: purified compound; thermal and mechanical hyperalgesia and mechanical allodynia; cited from earlier work.

For the molecule `CC(C)=C1CC[C@@H](C)CC1=O` [PUL, (R)-5-Methyl-2-(1-methylethylidine) cyclohexanone], in data set [1], the “Chemical nociception in first and second phase of the formalin test” value is reported as “significantly inhibited”. For the same molecule, the “Miscibility with organic solvents” value in data set [2] (ethanol, diethyl ether and chloroform) was “miscible”. In data set [2] (water), the Solubility in water result is given as “practically insolubile”.

For the molecule `COc1cc(CNC(=O)CCCC/C=C/C(C)C)ccc1O` [CPF, capsaicin], the Anti-inflammatory effects entry in data set [3] was “comparable to diclofenac”.

`C=C(C)[C@@H]1CCC(C)=C[C@H]1c1c(O)cc(CCCCC)cc1O` [CBD 50 mg, Cannabidiol]: in data set [4], the “Magnitude of pain reduction from baseline” value (from here on “Magnitude of pain reduction”) was 2, the “Duration of effect” value is 5 h, the “Onset of effect” value was 20 min and the “VAS at max effect” value stood at 5. Also, the “Relief of neuropathic pain” value in data set [5] is “partially relieve neuropathic pain”.

Take `CCCCCCCCCCCCCCCC(=O)NCCO` [PEA 250 mg, N-Palmitoylethanolamide]: in data set [4], the “Magnitude of pain reduction” value was 2, the “Duration of effect” value stood at 6 h, the “Onset of effect” value turned out to be 30 min and the “VAS at max effect” value was 5.

In the case of `CCCCCc1cc(O)c(C/C=C(\C)CCC=C(C)C)c(O)c1` [CBG 50 mg, Cannabigerol], in data set [4], the “Magnitude of pain reduction” value worked out at 0 and the “VAS at max effect” value is given as 8.
